Series [1] deals with HIV. Also on record: method as in earlier work. Conditions: Figure 1; cited from earlier work.
Series [2] relates to C8166 cells. The experiment in a line: Cytotoxicity assay (MTT). The class given is cell-based. On the procedure: (§1) The cytotoxicty assay was performed by 3-(4,5-dimethylthiazol-2-yl)-2,5-diphenyl tetrazoliumbromide (MTT) method. Briefly, 100 μL 4 × 10^4 C8166 cells were seeded each well with 100 μL of different concentrations of compounds in a 96-well plate. The plate was incubated 72 h at 37 °C, 5% CO2 incubator. MTT (20 μL, 5 mg/mL) was added to each well and the plate was incubated at 37 °C for 4 h. Supernatant (100 μL) was discarded and 20% SDS-50% DMF (100 μL) was added. The plates were read at 570/630 nm by a Bio-Tek Elx 800 reader (Bio-Tek Instruments, Inc., Winooski, VT, USA). The 50% cytotoxic concentration (CC50) was calculated.

Series [3] deals with HIV-1IIIB. The experiment in a line: Syncytia inhibition assay (HIV-1IIIB infected C8166 cells). Conditions: for TI (in vitro therapeutic index, CC50 value/EC50 value): CC50 in C8166 cells / EC50 syncytia inhibition; for EC50: HIV-1IIIB infected C8166 cells, 72 h, means of two separate experiments, read-out: EC50 (50% effective concentration, reduces syncytia formation by 50%). The series is classed as cell-based. As to the method:
Target compounds 6–16 were evaluated for their inhibitory activity against HIV-1 replication in acutely infected C8166 cells in vitro according to the previously described method, and AZT was used as a positive control. The assay results of the target compounds are presented in Table 1 and Table 2, expressed as CC50, EC50 and therapeutic index (TI).
The syncytia inhibition assay was applied by counting syncytia which were formed by HIV-1IIIB infected C8166 cells. Briefly, HIV-1IIIB supernatant and C8166 cells were seeded in a 96-well plate with different concentration of compounds. The plate was incubated in a 37 °C, 5% CO2 incubator for 72 h. Syncytia were counting under an inverted microscope and 50% effective concentration (EC50) was calculated. Therapeutic index (TI) was calculated by the ratio of CC50/EC50.

The nature of series [4]: Cytotoxicity assay (MTT). The following applies: human; C8166 cells, MTT, 72 h; means of two separate experiments; read-out: CC50 (50% cytotoxic concentration). The class given is cell-based. As to the method: as §1
The mark [5] stands for this setting: Human immunodeficiency virus 1, C8166, 72 h.

Where two headings read alike, the source gives them in different places.

In the case of `CCOC(=O)c1ncc(O)c2c1C(=O)N(CCc1ccc(F)cc1)C2=O` [compound 5], the EC50 in series [1] is 1.65 µM.

Consider `Cc1cn([C@H]2C[C@H](N=[N+]=[N-])[C@@H](CO)O2)c(=O)[nH]c1=O` [AZT, reference compound], for which the CC50 in series [2] (C8166 cells, MTT, 72 h, means of two separate experiments, read-out: CC50 (50% cytotoxic concentration)) turned out to be 3780 µM. In series [3], the “TI (in vitro therapeutic index, CC50 value/EC50 value)” value is reported as 444,588 and the EC50 was 0.0085 µM.

“3-(2,3-Dihydroxyphenyl)-1-(4-fluorophenyl)-5-[2-(4-fluorophenyl)ethyl]-3a,6a-dihydro-1H-pyrrolo[3,4-c]pyrazole-4,6-dione [10b]” had a CC50 in series [2] of 189 µM. In series [3], the “TI (in vitro therapeutic index, CC50 value/EC50 value)” value is on record as 39.85 and the EC50 came to 4.73 µM.

On to `COc1cccc(C2=NN(c3ccc(F)cc3)C3C(=O)N(CCc4ccccc4)C(=O)C23)c1O` (stereo not drawn) [16d, 1-(4-Fluorophenyl)-3-(2-hydroxy-3-methoxyphenyl)-5-phenethyl-3a,6a-dihydro-1H-pyrrolo[3,4-c]pyrazole-4,6-dione], for which the CC50 at 72 h in series [4] is over 436 µM. In addition, in series [3], the “TI (in vitro therapeutic index, CC50 value/EC50 value)” value is over 23.09. Besides, the EC50 in series [3] (setting [5]) came to 18.9 µM.

With `COc1cccc(C2=NN(c3ccc(C)cc3)C3C(=O)N(CCc4ccc(F)cc4)C(=O)C23)c1O` (stereo not drawn) [15i, 5-[2-(4-Fluorophenyl)ethyl]-3-(2-hydroxy-3-methoxyphenyl)-1-(4-methylphenyl)-3a,6a-dihydro-1H-pyrrolo[3,4-c]pyrazole-4,6-dione], in series [4], the CC50 at 72 h is over 423 µM. Also, in series [3], the “TI (in vitro therapeutic index, CC50 value/EC50 value)” value is reported as over 103.09 and the EC50 worked out at 4.1 µM. Moreover, the EC50 in series [3] (setting [5]) is under 5 µM.

In the case of `COc1cccc(C2=NN(c3ccc(C(F)(F)F)cc3)C3C(=O)N(CCc4ccc(F)cc4)C(=O)C23)c1O` (stereo not drawn) [15e, 5-[2-(4-Fluorophenyl)-ethyl]-3-(2-hydroxy-3-methoxyphenyl)-1-(4-trifluoromethylphenyl)-3a,6a-dihydro-1H-pyrrolo[3,4-c]pyrazole-4,6-dione], the CC50 at 72 h in series [4] was over 379 µM. Moreover, the “TI (in vitro therapeutic index, CC50 value/EC50 value)” value in series [3] was over 11.81. For the same compound, the EC50 in series [3] (setting [5]) is 32.1 µM.

Regarding `COc1cccc(C2=NN(c3ccccc3)C3C(=O)N(CCc4ccc(F)cc4)C(=O)C23)c1O` (stereo not drawn) [15h, 5-[2-(4-Fluorophenyl)ethyl]-3-(2-hydroxy-3-methoxyphenyl)-1-phenyl-3a,6a-dihydro-1H-pyrrolo[3,4-c]pyrazole-4,6-dione], in series [4], the CC50 at 72 h is over 436 µM. The “TI (in vitro therapeutic index, CC50 value/EC50 value)” value in series [3] is over 15.22. The EC50 in series [3] (setting [5]) was 28.6 µM.

In the case of `COc1cccc(C2=NN(c3ccc(F)cc3F)C3C(=O)N(CCc4ccc(F)cc4)C(=O)C23)c1O` (stereo not drawn) [15d, 1-(2,4-Difluorophenyl)-5-[2-(4-fluorophenyl)ethyl]-3-(2-hydroxy-3-methoxyphenyl)-3a,6a-dihydro-1H-pyrrolo[3,4-c]pyrazole-4,6-dione], the CC50 at 72 h in series [4] is over 404 µM. Besides, the “TI (in vitro therapeutic index, CC50 value/EC50 value)” value in series [3] is recorded as over 6.12. For the same compound, the EC50 in series [3] (setting [5]) was 65.9 µM.

In the case of `COc1cccc(C2=NN(c3ccc(Cl)cc3)C3C(=O)N(CCc4ccc(F)cc4)C(=O)C23)c1O` (stereo not drawn) [15c, 1-(4-Chlorophenyl)-5-[2-(4-fluorophenyl)ethyl]-3-(2-hydroxy-3-methoxyphenyl)-3a,6a-dihydro-1H-pyrrolo[3,4-c]pyrazole-4,6-dione], the CC50 at 72 h in series [4] was determined as 166 µM. For the same compound, in series [3], the “TI (in vitro therapeutic index, CC50 value/EC50 value)” value came out at 6.52. Also, in series [3] (setting [5]), the EC50 came out at 25.5 µM.

In the case of `COc1cccc(C2=NN(c3ccc(F)cc3)C3C(=O)N(CCc4ccc(F)cc4)C(=O)C23)c1O` (stereo not drawn) [9g, 1-(4-Fluorophenyl)-5-[2-(4-fluorophenyl)ethyl]-3-(2-hydroxy-3-methoxyphenyl)-3a,6a-dihydro-1H-pyrrolo[3,4-c]pyrazole-4,6-dione], the CC50 at 72 h in series [4] was over 419 µM. Besides, the “TI (in vitro therapeutic index, CC50 value/EC50 value)” value in series [3] is over 105.26. In addition, the EC50 was 3.98 µM in series [3] and under 5 µM in series [3] (setting [5]).

As for `Cc1cccc(C2=NN(c3ccc(F)cc3)C3C(=O)N(CCc4ccc(F)cc4)C(=O)C23)c1O` (stereo not drawn) [9f, 1-(4-Fluoro-phenyl)-5-[2-(4-fluoro-phenyl)-ethyl]-3-(2-hydroxy-3-methyl-phenyl)-3a,6a-dihydro-1H-pyrrolo[3,4-c]pyrazole-4,6-dione], the CC50 at 72 h in series [4] came to 151 µM. The “TI (in vitro therapeutic index, CC50 value/EC50 value)” value in series [3] turned out to be 30.73. In series [3] (setting [5]), the EC50 is 4.9 µM.

With `O=C1C2C(c3cc(F)ccc3O)=NN(c3ccc(F)cc3)C2C(=O)N1CCc1ccc(F)cc1` (stereo not drawn) [9c, 1-(4-Fluorophenyl)-5-[2-(4-fluorophenyl)ethyl]-3-(5-fluoro-2-hydroxyphenyl)-3a,6a-dihydro-1H-pyrrolo[3,4-c]pyrazole-4,6-dione], the CC50 at 72 h in series [4] was determined as 159 µM. The “TI (in vitro therapeutic index, CC50 value/EC50 value)” value in series [3] was found to be 37.70. The EC50 in series [3] (setting [5]) is 4.21 µM.

Regarding `COc1cccc(C2=NN(c3cccc(F)c3)C3C(=O)N(CCc4ccc(F)cc4)C(=O)C23)c1O` (stereo not drawn) [15a, 1-(3-Fluorophenyl)-5-[2-(4-fluorophenyl)ethyl]-3-(2-hydroxy-3-methoxyphenyl)-3a,6a-dihydro-1H-pyrrolo[3,4-c]pyrazole-4,6-dione], the CC50 at 72 h in series [4] is 129 µM. The “TI (in vitro therapeutic index, CC50 value/EC50 value)” value in series [3] was found to be 10.67. Moreover, the EC50 in series [3] (setting [5]) was found to be 12.1 µM.

As to `O=C1C2C(c3ccccc3O)=NN(c3ccc(F)cc3)C2C(=O)N1CCc1ccc(F)cc1` (stereo not drawn) [compound 8, 1-(4-Fluorophenyl)-5-[2-(4-fluorophenyl)ethyl]-3-(2-hydroxyphenyl)-3a,6a-dihydro-1H-pyrrolo[3,4-c]pyrazole-4,6-dione], in series [4], the CC50 at 72 h is over 447 µM. Also, in series [3], the “TI (in vitro therapeutic index, CC50 value/EC50 value)” value is over 44.25. Further, the EC50 in series [3] (setting [5]) is 10.1 µM.

Take `CCOc1cccc(C2=NN(c3ccc(F)cc3)C3C(=O)N(CCc4ccc(F)cc4)C(=O)C23)c1O` (stereo not drawn) [10c, 1-(4-Fluorophenyl)-5-[2-(4-fluorophenyl)ethyl]-3-(3-ethoxy-2-hydroxyphenyl)-3a,6a-dihydro-1H-pyrrolo[3,4-c]pyrazole-4,6-dione]: in series [4], the CC50 at 72 h was over 407 µM. In addition, in series [3], the “TI (in vitro therapeutic index, CC50 value/EC50 value)” value was over 3.51. The EC50 in series [3] (setting [5]) stood at 116 µM.

With `O=C1C2C(c3cccc(O)c3O)=NN(c3ccc(F)cc3)C2C(=O)N1CCc1ccc(F)cc1` (stereo not drawn) [compound 6, 3-(2,3-Dihydroxyphenyl)-1-(4-fluorophenyl)-5-[2-(4-fluorophenyl)ethyl]-3a,6a-dihydro-1H-pyrrolo[3,4-c]pyrazole-4,6-dione], in series [4], the CC50 at 72 h was over 432 µM. In addition, in series [3], the “TI (in vitro therapeutic index, CC50 value/EC50 value)” value is recorded as over 16.37. In series [3] (setting [5]), the EC50 is 26.4 µM.

For `O=C1C2C(c3ccc(O)cc3O)=NN(c3ccc(F)cc3)C2C(=O)N1CCc1ccc(F)cc1` (stereo not drawn) [9a, 3-(2,4-Dihydroxyphenyl)-1-(4-fluorophenyl)-5-[2-(4-fluorophenyl)ethyl]-3a,6a-dihydro-1H-pyrrolo[3,4-c]pyrazole-4,6-dione], the CC50 at 72 h in series [4] turned out to be 173 µM. In series [3], the “TI (in vitro therapeutic index, CC50 value/EC50 value)” value is reported as 4.91. For the same compound, the EC50 in series [3] (setting [5]) is 35.3 µM.
